The values that follow come from patent US20250320496A1, “MODULATION OF ABCB11 GENE TRANSCRIPTION USING ANTISENSE OLIGONUCLEOTIDES TARGETING REGULATORY RNAS” (CAMP4 Therapeutics Corporation, priority 2022, published 2025).

Strand notation (5' to 3'): a small letter for the sugar, then the base; units joined by * are phosphorothioate-linked, units joined directly phosphodiester-linked; [ ] holds rarer units or linkages, { } end groups; capitals alone tell only the bases. e = 2'-O-(2-methoxyethyl) (MOE); {TEG} = Teg-GalNAc conjugate; [5mC] = 5-methylcytosine

The subject of data set [1] is mouse Abcb11 mRNA. The data set can be described thus: Liver-humanized FRG knockout mice, mouse Abcb11 mRNA in liver. It is filed as in vivo. As to conditions: second study, liver-humanized FRG knockout mice (FIG. 15A). On the procedure: (§1) B. Second Study. In a second in vivo study was conducted to assess the ability of CO-11202 (CO-12367 conjugated with GalNAc3). Mice were dosed with […] on Days 0 and 7 via SC injection. One group of five mice were dosed with PBS control via SC injection on Days 0 and 7. One group of five mice received 10 mg/kg of obeticholic acid (OCA) via oral gavage daily for 21 days. Fasting blood was collected from the mice on Days 0, 7, 14 and 21 (collection performed prior to any SC injections) and processed to serum to analyze bile acid levels. On Day 21, mice were euthanized and livers and ileum tissue harvested and processed as described above.
(§2) Frozen liver pieces were pulverized on dry ice and RNA extracted using TRIzol™ reagent. cDNA was generated and analyzed using qPCR to detect ABCB11 mRNA levels and other genes of interest as described above. Serum 7αC4 levels were detected using LC-MS (Creative Proteomics). Total serum bile acids were measured using the Total Bile Acid Fluorometric Assay Kit (Cell BioLabs). Liver bile acids were measured using the Total Bile Acid Fluorometric Assay Kit.

For data set [2], the system named is human ABCB11 mRNA. The experiment in a line: Liver-humanized FRG knockout mice, human ABCB11 mRNA in liver by qPCR. It counts as in vivo. On the procedure:
(§3) In a first in vivo study, female liver-humanized FRG® (Fah^−/−; Rag2^−/−; Il2rg^−/−) knockout mice (Yecuris™) were used to assess the efficacy of the human ABCB11 regRNA-targeting ASOs CO-3986 and CO-4535 in the context of cholestasis. The mice were grouped evenly based on albumin and body weight.
A. First Study. Two groups of five mice were dosed with GalNAc3—CO-7378 (CO-3986 conjugated to GalNAc3) or GalNAc3—CO-7379 ([…]) respectively, control via subcutaneous (SC) injection on Days 0 and 7. One group of five mice was dosed with PBS control via SC injection on Days 0 and 7. […] The serum (two tubes for each animal, 15 μL and 25 μL, for each timepoint) was analyzed using LC-MS (Creative Proteomics) to assess bile acids and 7αC4 levels. The remaining samples collected were analyzed for total serum bile acid levels using a commercial kit. […]
as §2

In data set [3] the test system is bile acids. The data set can be described thus: Liver-humanized FRG knockout mice, liver and serum bile acids. It counts as in vivo, mouse. On the procedure: as §3
A. First Study. Two groups of five mice were dosed with GalNAc3—CO-7378 (CO-3986 conjugated to GalNAc3) or GalNAc3—CO-7379 ([…]) respectively, control via subcutaneous (SC) injection on Days 0 and 7. One group of five mice was dosed with PBS control via SC injection on Days 0 and 7. A fourth group of five mice was treated with ursodeoxycholic acid (UDCA) via intraperitoneal (IP) injection on Days 14-21. […] On Day 21, the animals were euthanized for terminal harvest after fasting overnight and >350 μL of whole blood was processed to serum. 100 μL of whole blood was collected in the same manner as the previous bleeds, prior to euthanasia and final exsanguination. Harvested livers were perfused with cold PBS with the left lobe and remnant liver frozen separately after bile salt collection. A piece of the ileum tissue was removed and flushed with PBS and snap-frozen. The serum (two tubes for each animal, 15 μL and 25 μL, for each timepoint) was analyzed using LC-MS (Creative Proteomics) to assess bile acids and 7αC4 levels. The remaining samples collected were analyzed for total serum bile acid levels using a commercial kit.
as §1, §2

Data set [4] deals with bile acid efflux in PHHs. The data set can be described thus: In vitro biliary clearance assay (B-CLEAR) in PHHs, d8-TCA by LC-MS. It is filed as cell-based, human. On the procedure: The ACCULIVER™ Human Biliary Clearance Kit (also known as the B-CLEAR® assay; BioIVT) was used to assess bile acid efflux in PHHs after ASO treatment. On Day 0, 4×10^5 cells were plated in 24-well collagen-coated plates and QualGro medium containing […] matrix and ASO was added 4 hrs. later. On Day 2, medium was refreshed. On Day 3, cells from some wells were harvested for RNA analysis using 350 μl Buffer RLT lysis buffer, and lysates frozen at −80° C. for later RNA extraction. On Day 4, cells in the remaining wells had medium refreshed. On Day 6, the assay was performed according to the manufacturer's instructions. Briefly, cells were conditioned with Plus or Minus Buffers provided with the assay for 10 minutes, followed by addition of deuterium-labelled sodium taurocholate (d8-TCA) for 10 mins. Cells were washed 3 times, and frozen after the final wash. Analysis of d8-TCA was performed using liquid chromatography-mass spectrometry (LC-MS) (BioIVT). Calculations of bile acid clearance were made from the resulting LC-MS data according to the manufacturer's instructions.

Data set [5] deals with CYP7A1 mRNA. The data set can be described thus: ASO treatment of primary human hepatocytes (PHH), CYP7A1 mRNA by RT-qPCR normalized to B2M. It counts as cell-based. On the procedure:
Primary human hepatocytes (PHH) were thawed using Lonza Human Cryopreserved Hepatocyte Thawing Medium and plated in 96-well collagen-coated plates (5.5-6.0×10^4 cells per well). Four hours later, the media was replaced with sterile-filtered QualGro™ Hepatocyte Culture Medium (BioIVT) containing antibiotic supplement, 0.3 mg/ml Matrigel® matrix (Corning®), and ASO at the desired concentration (e.g., 1.25 μM, 2.5 μM, 5 μM, or 10 μM). […] Plates were frozen at-80° C. during cell lysis. After thawing, total RNA was isolated using the Qiagen RNEasy kit as instructed by manufacturer. cDNA (random-primed) was synthesized from 10 μl of RNA using the LifeTech High Capacity cDNA Reverse Transcription kit. 2 μl of cDNA was used for reverse transcription-quantitative PCR (RT-qPCR) analyses using standard Taqman” reagents from Applied Biosystems™ to measure ABCB11 and CYP7A1 gene expression. Gene expression data was normalized to the housekeeper gene, beta-2-microglobulin (B2M).
ASOs targeting ABCB11 regRNA enhance bile acid efflux in vitro. Levels of cholesterol 7 alpha-hydroxylase (CYP7A1) mRNA (or the enzymatic activity of its protein) can be used to track changes in bile acid synthesis in the liver since the CYP7A1 protein is the first and rate-limiting step in the conversion of cholesterol to bile acids (see, e.g., Chiang and Ferrel (2020) Liver Res. 4 (2): 47-63). […] Conversely, when bile acid levels reach high levels, this gene is actively down regulated. These changes are mediated by farnesoid X receptor (FXR), a sensor of bile acid levels, and the master regulator of intracellular bile acid concentrations. CYP7A1 mRNA can therefore be used as a surrogate for monitoring changes in hepatic bile acids in response to ASO treatment. Accordingly, an ASO that successfully increases ABCB11 expression would be expected to promote increased bile acid efflux, thus reducing bile acid levels in the cell. In a wild-type (non-disease) setting, this reduction promotes a compensatory increase in CYP7A1 to restore normal levels.

Data set [6] concerns human ABCB11 mRNA. The data set can be described thus: ASO treatment of primary human hepatocytes (PHH), ABCB11 mRNA by RT-qPCR normalized to B2M. It counts as cell-based. Set-up: ABCB11 mRNA, dose titration: unit of the concentration uncertain. An outline of the steps:
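ABCB11 mRNA was quantified by Taqman RT-qPCR relative to B2M and expressed as fold over untreated cells. Cells were cryopreserved primary human hepatocytes given ASO in Matrigel-supplemented medium 4 h after plating, at 1.25, 2.5, 5 or 10 μM (5 μM for screening), and harvested after 72 hrs.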

As for “CO-12367: GalNAc3 conjugate counterpart of CO-11202, dosed SC in liver-humanized mice (antisense eT*eG*eTeT*eT*eT*eG*e[5mC]eT*eT*eG*eG*eTe[5mC]*eA*eA*eG*eAeG*eG-{TEG})”, the “mouse Abcb11 expression” value in data set [1] is reported as “without affecting mouse Abcb11 expression”. Moreover, the “human ABCB11 expression” value in data set [2] (second study, 10 mg/CO-12367 SC on Days 0 and 7) is “increased human ABCB11 expression”. Besides, in data set [3] (second study, liver-humanized FRG knockout mice (FIG. 15B)), the “serum bile acid levels” value is listed as “decrease in serum bile acid levels”.
As to “CO-3986: ASO targeting paRNA RR63 of human ABCB11 (antisense eT*eG*eT*eT*eT*eT*eG*e[5mC]*eT*eT*eG*eG*eT*e[5mC]*eA*eA*eG*eA*eG*eG)”, the “human ABCB11 expression” value in data set [2] (first study, SC on Days 0 and 7) is recorded as “increased human ABCB11 expression”. Moreover, the “intracellular and extracellular bile acid levels” value in data set [4] (5 μM and 10 μM ASO, bile acid efflux assay (FIG. 7C)) was “reduced intracellular and extracellular bile acid levels”. Moreover, the “efflux of bile acids from the intracellular compartment to the bile cannuliculi” value in data set [4] (B-CLEAR assay) was “increased”. Also, the “liver bile acid efflux” value in data set [3] (first study, liver-humanized FRG knockout mice) is “increased efflux of bile acid”. Moreover, in data set [3] (first study, liver-humanized FRG knockout mice (FIG. 9B)), the “ratio of liver bile acid (BA) to serum BA” value is given as “decreased ratio of liver bile acid (BA) to serum BA”. The intracellular bile acids entry in data set [3] (first study, liver-humanized FRG knockout mice, ASO-treated mice) is given as “lower levels of intracellular bile acids”. Moreover, the “expression of CYP7A1 mRNA, dose response” value in data set [5] (PHHs (FIG. 3B)) was “increased expression of CYP7A1 mRNA in a dose-dependent manner”. The CYP7A1 expression result in data set [5] (PHHs of the B-CLEAR experiment (FIG. 7B)) is reported as “upregulated”. In addition, the “ABCB11 expression (duplicate wells, qRT-PCR)” value in data set [6] (PHHs of the B-CLEAR experiment, dose response (FIG. 7A)) is reported as “increased ABCB11 expression”. Besides, the “upregulation of ABCB11 mRNA” value in data set [6] (PHHs, Day 3, normalized to untreated PHHs) is “approximately 1.5 fold”. For the same substance, the “ABCB11 mRNA, dose titration” value in data set [6] (PHHs, CO-3986 and CO-4529 tested at 2.5 (unit uncertain), 5 μM, and 10 μM) is “dose-dependent increase”. Also, the “ABCB11 mRNA FC (5 μM ASO vs. UNT)” value in data set [6] (primary human hepatocytes, 5 μM ASO, normalized to untreated PHHs (UNT)) worked out at 1.27 fold change.
